Patent EP0561850B1, “7-SUBSTITUTED-6-FLUORO-1,4-DIHYDRO-4-OXO-QUINOLINE-3-CARBOXYLIC ACID COMPOUNDS USEFUL AS ANTIBACTERIAL AGENTS” (priority 1990, dated 1992)
≈ marks a conversion by molar mass, not a printed value. Like-named read-outs stand apart in the source and are kept apart here.

How the values were obtained:
Test in all cases: Microbroth dilution (MHB) method, NCCLS M7-A2
[1] = system: Enterobacter cloacae S-130; assay type: cell-based; details: 35 °C/18 hr
Procedure: (§1) The test organisms were obtained from ATCC and clinical laboratories. The 96-well microtitre plates containing […] of serially diluted test compounds in Mueller Hinton Broth (MHB) (conc. range 64-0.03 µg/ml) were inoculated with […] of bacterial suspension in MHB so that an inoculum size of 5 x 10^5 cfu/ml was achieved.
(§2) EC. (S- 63): Eschericia coli Ecl. (S- 130): Enterobacter cloacae Pa. (S- 67): Pseudomonas aeruginosa Kp. (S- 80): Klebsiella pneumoniae Pr.
(§3) Microbroth Dilution (MHB) method; Inoculum, 5 x 10^5 cfu/ml; Incubation 35 °C/18 hr

Eschericia coli S-63 = assay type: cell-based; details: Ec S-63, inoculum 5 x 10^5 cfu/ml, 35 °C/18 hr
Procedure: as §1, §2, §3

[2] = system: Klebsiella pneumoniae S-80; assay type: cell-based; details: Kp S-80, MHB, inoculum 5 x 10^5 cfu/ml, 35 °C/18 hr
Procedure: as §1, §2, §3

[3] = system: Providencia rettgeri S-121; assay type: cell-based; details: 35 °C/18 hr
Procedure: as §1, §2, §3

[4] = system: Pseudomonas aeruginosa S-67; assay type: cell-based; details: Pa S-67, MHB, inoculum 5 x 10^5 cfu/ml, 35 °C/18 hr
Procedure: as §1, §2, §3

[5] = system: Staphylococcus aureus S-127; assay type: cell-based; details: 35 °C/18 hr
Procedure: as §1, §2, §3

Sa 127M = assay type: cell-based, Staphylococcus aureus; details: inoculum 5 x 10^5 cfu/ml, 35 °C/18 hr
Procedure: as §1, §2, §3

[6] = Enterobacter cloacae, S130, Ecl S-130, inoculum 5 x 10^5 cfu/ml, read-out: MIC
[7] = Klebsiella pneumoniae, S80, read-out: MIC
[8] = Providencia rettgeri, S121, Pr S-121, inoculum 5 x 10^5 cfu/ml, read-out: MIC
[9] = Pseudomonas aeruginosa, S67, read-out: MIC
[10] = Staphylococcus aureus, S127, Sa S-127, inoculum 5 x 10^5 cfu/ml, read-out: MIC
[11] = Staphylococcus aureus, read-out: MIC
[12] = Ecl S-130, inoculum 5 x 10^5 cfu/ml
[13] = Pr S-121, inoculum 5 x 10^5 cfu/ml
[14] = Sa S-127, inoculum 5 x 10^5 cfu/ml

| Compound | MIC [1, 6] [mg/L] | MIC (Eschericia coli S-63; read-out: MIC) [mg/L] | MIC [2, 7] [mg/L] | MIC [3, 8] [mg/L] | MIC [4, 9] [mg/L] | MIC [5, 10] [mg/L] | MIC (Sa 127M; [11]) [mg/L] | MIC [1, 12] | MIC (Eschericia coli S-63) | MIC [2] | MIC [3, 13] | MIC [4] [mg/L] | MIC [5, 14] | MIC (Sa 127M) |
| --- | --- | --- | --- | --- | --- | --- | --- | --- | --- | --- | --- | --- | --- | --- |
| O=C(O)c1cn(C2CC2)c2c(F)c(N3CCC(n4nncc4C(=O)O)C3)c(F)cc2c1=O (stereo not drawn) [Example 43, 1-Cyclopropyl-6,8-difluoro-7-(3-(5-carboxy-1,2,3-triazol-1-yl)-pyrrolidin-1-yl)-1,4-dihydro-4-oxo-quinoline-3-carboxylic acid] | 32 (≈ 71.8 µM) | 16 (≈ 35.9 µM) | 32 (≈ 71.8 µM) | 32 (≈ 71.8 µM) | > 32 | 8 (≈ 18 µM) | 8 (≈ 18 µM) | – | – | – | – | – | – | – |
| O=C(O)c1cn(C2CC2)c2c(F)c(N3CCC(n4cc(-c5ccccc5)nn4)C3)c(F)cc2c1=O (stereo not drawn) [Example 46, 1-cyclopropyl-6,8-difluoro-7-[3-(4-phenyl-1,2,3-triazol-1-yl)-pyrrolidin-1-yl]-1,4-dihydro-4-oxo-quinoline-3-carboxylic acid] | 1 (≈ 2.09 µM) | 0.25 (≈ 0.524 µM) | 1 (≈ 2.09 µM) | 0.015 (≈ 0.0314 µM) | 32 (≈ 67 µM) | 0.015 (≈ 0.0314 µM) | 0.015 (≈ 0.0314 µM) | – | – | – | – | – | – | – |
| Nc1c(F)c(N2CCC(n3cc(-c4ccccc4)nn3)C2)c(F)c2c1c(=O)c(C(=O)O)cn2C1CC1 (stereo not drawn) [Example 47, 5-amino-1-cyclopropyl-6,8-difluoro-7-[3-(4-phenyl-1,2,3-triazol-1-yl)-pyrrolidin-1-yl]-1,4-dihydro-4-oxo-quinoline-3-carboxylic acid] | 16 (≈ 32.5 µM) | 0.25 (≈ 0.508 µM) | 0.5 (≈ 1.02 µM) | 0.015 (≈ 0.0305 µM) | > 32 | 0.015 (≈ 0.0305 µM) | 0.015 (≈ 0.0305 µM) | – | – | – | – | – | – | – |
| Cc1c(F)c(N2CCC(n3cc(-c4ccccc4)nn3)C2)c(F)c2c1c(=O)c(C(=O)O)cn2C1CC1 (stereo not drawn) [Example 48, 1-cyclopropyl-6,8-difluoro-5-methyl-7-[3(4-phenyl-1,2,3-triazol-1-yl)-pyrrolidin-1-yl]-1,4-dihydro-4-oxo-quinoline-3-carboxylic acid] | 4 (≈ 8.14 µM) | 1 (≈ 2.03 µM) | 4 (≈ 8.14 µM) | 0.015 (≈ 0.0305 µM) | 16 (≈ 32.6 µM) | 0.015 (≈ 0.0305 µM) | 0.015 (≈ 0.0305 µM) | – | – | – | – | – | – | – |
| O=C(O)c1cn(C2CC2)c2c(F)c(N3CCC(n4ccnn4)C3)c(F)c(F)c2c1=O (stereo not drawn) [Example 49, 1-cyclopropyl-5,6,8-trifluoro-7-[3-(1,2,3-triazol-1-yl)-pyrrolidin-1-yl]-1,4-dihydro-4-oxo-quinoline-3-carboxylic acid] | 0.5 (≈ 1.19 µM) | 0.5 (≈ 1.19 µM) | 0.5 (≈ 1.19 µM) | 0.12 (≈ 0.286 µM) | 8 (≈ 19.1 µM) | 0.25 (≈ 0.596 µM) | 0.25 (≈ 0.596 µM) | – | – | – | – | – | – | – |
| O=C(O)c1cn(C2CC2)c2c(F)c(N3CCC(n4ccnn4)C3)c(F)c(O)c2c1=O (stereo not drawn) [Example 50, 1-Cyclopropyl-5-hydroxy-6,8-difluoro-7-[-3-(1,2,3-triazol-1-yl)-pyrrolidin-1-yl]-1,4-dihydro-4-oxo-quinoline-3-carboxylic acid] | 2 (≈ 4.79 µM) | 1 (≈ 2.4 µM) | 1 (≈ 2.4 µM) | 0.06 (≈ 0.144 µM) | 16 (≈ 38.3 µM) | 0.25 (≈ 0.599 µM) | 0.25 (≈ 0.599 µM) | – | – | – | – | – | – | – |
| CCn1cc(C(=O)O)c(=O)c2cc(F)c(N3CCNCC3)cc21 [MFLX, Norfloxacin, reference compound] | 0.12 (≈ 0.376 µM) | 0.06 (≈ 0.188 µM) | 0.12 (≈ 0.376 µM) | 1 (≈ 3.13 µM) | 1 (≈ 3.13 µM) | 1 (≈ 3.13 µM) | 16 (≈ 50.1 µM) | – | – | – | – | – | – | – |
| N,N,N-Trimethyl-N-(2-hydroxyethyl) ammonium 1- cyclopropyl-6,8-difluoro-7-[3-(4-methyl-1,2,3-triazol-1-yl)pyrrolidin-1-yl]-1,4-dihydro-4-oxo-quinoline-3-carboxylate [Example 35] | – | – | – | – | – | – | – | .5 mg/L | .25 mg/L | .25 mg/L | .25 mg/L | 4 | ≤.015 mg/L | .03 mg/L |
| N,N,N-Trimethyl-N-(2-hydroxyethyl)ammonium-1-cyclopropyl-6,8-difluoro-7-[3-(1,2,4-triazol-1-yl)pyrrolidin-1-yl]-1,4-dihydro-4-oxo-quinoline-3-carboxylate [Example 37] | – | – | – | – | – | – | – | 2 mg/L | .5 mg/L | 1 mg/L | 1 mg/L | 8 | .06 mg/L | .25 mg/L |
